{"source": "patent US11834663B2", "about": "“Fibrotic treatment” (Monash University, priority 2015, dated 2023)", "format_in_all_cases": "in vivo, mouse", "key": {"aged WT mice": {"test_system": "aged WT mice", "test": "Systolic blood pressure, body weight and cardiac hypertrophy in aged WT mice after chronic IRAP inhibition", "description": "There are 8 different sets of in vivo experiments in this study: • A) Phenotypic characterisation of the heart and blood vessels in global IRAP knockout mice and their WT controls treated for 4 weeks with Angiotensin (Ang) II (800 ng/kg/min; s.c.) where mouse hearts and blood vessels were compared to tissue obtained from young WT and IRAP^−/− mice treated with saline. • B) Prevention of Ang II-induced changes in the cardiovascular system following IRAP inhibitor treatment. In the prevention model, WT mice were treated with Ang II (800 ng/kg/min; s.c.)±the IRAP inhibitor (HFI-419; 500 ng/kg/min for 28 days) or HFI-vehicle (1 DMSO:3 HBC). • C) Phenotypic characterisation of the aged heart, kidney and blood vessels in the global IRAP knockout mice where aged WT and IRAP^−/− mouse hearts, kidneys and blood vessels were compared to tissue obtained from young WT and IRAP^−/− mice. • D) Reversal of the age-induced changes in the cardiovascular system following IRAP inhibitor treatment. In the reversal model, aged WT mice were treated with either saline, IRAP inhibitor (HFI-419 at 500 ng/kg/min; compound 1 at 500 ng/kg/min; compound 2 at 50 ng/kg/min) or HFI-vehicle (1 DMSO: 3 HBC) for 4 weeks. • E) Prevention of ischemic-reperfusion injury in isolated hearts taken from aged global IRAP knockout mice and aged IRAP inhibitor (HFI-419 at 500 ng/kg/min; s.c.) treated WT mice compared to age-matched vehicle-treated (1 DMSO:3 HBC; s.c.) WT controls. • F) Phenotypic characterization of cardiac function using echocardiography in the aged global IRAP knockout mice compared to aged and young WT mice. • G) Phenotypic characterization of liver steatosis in IRAP knockout mice in a high fat diet (HFD) model. • H) Reversal of the salt-induced fibrosis in the liver following IRAP inhibitor treatment.\nAll mice which underwent surgery were anaesthetized with Isoflurane (Isorrane) (5% induction and 2.5% maintenance) and an incision made in the midscapular region through which osmotic minipumps (Alzet model 2004, Alza Corp) were inserted for subcutaneous drug administration. The incision area was sutured with 6/0 DY silk (Dynek Pty Ltd) and antibiotic powder applied (Cicatrin, Pfizer) followed by intramuscular injection of the analgesic Cartrophen (0.1 ml of a 1.5 mg/ml stock solution; Biopharm Australia). Systolic blood pressure (SBP) was measured fortnightly using non-invasive tail-cuff plethysmography apparatus (MC4000 Blood Pressure Analysis System, Hatteras Instrument Inc) before drug treatment (week 0), at week 2 of treatment and end of treatment (week 4). At the end of drug treatment, body weight of mice was recorded. Mice were anaesthetized using Isoflurane inhalation and killed by cervical dislocation. Organs (heart, aorta, kidneys, brain, blood and tibia) were collected, with heart and aorta being dissected appropriately as described below. All organs were then snap frozen in liquid nitrogen, and stored at −80° C. if they were not used for vascular reactivity studies conducted on the day mice were killed.\nVentricular weight (VW) was compared to the body weight (BW) as a ratio of VW:BW (mg/g), as well as comparison of VW to tibial length (TL) in as a ratio of VW:TL (mg/mm) respectively. […] The average of 100 cardiomyocytes per heart section was performed under 60× magnification and analyzed using Image J."}, "Ang II-infused WT mice": {"test_system": "Ang II-infused WT mice", "test": "Angiotensin II infusion prevention model: systolic blood pressure (tail-cuff)", "conditions": "adult WT mice, Ang II 800 ng/kg/min s.c. + HFI-419 500 ng/kg/min, 4 weeks; FIG. 1", "description": "(§1) There are 8 different sets of in vivo experiments in this study: • A) Phenotypic characterisation of the heart and blood vessels in global IRAP knockout mice and their WT controls treated for 4 weeks with Angiotensin (Ang) II (800 ng/kg/min; s.c.) where mouse hearts and blood vessels were compared to tissue obtained from young WT and IRAP^−/− mice treated with saline. • B) Prevention of Ang II-induced changes in the cardiovascular system following IRAP inhibitor treatment. […]\nAll mice which underwent surgery were anaesthetized with Isoflurane (Isorrane) (5% induction and 2.5% maintenance) and an incision made in the midscapular region through which osmotic minipumps (Alzet model 2004, Alza Corp) were inserted for subcutaneous drug administration. […] Systolic blood pressure (SBP) was measured fortnightly using non-invasive tail-cuff plethysmography apparatus (MC4000 Blood Pressure Analysis System, Hatteras Instrument Inc) before drug treatment (week 0), at week 2 of treatment and end of treatment (week 4). At the end of drug treatment, body weight of mice was recorded. […]"}, "[1]": {"test_system": "kidneys of aged (18-22 month old) WT mice", "test": "Reversal of age-induced kidney fibrosis in aged WT mice", "description": "as §1, with “treatment. In the prevention model, WT mice were treated with Ang II (800 ng/kg/min; s.c.)±the IRAP inhibitor (HFI-419; 500 ng/kg/min for 28 days) or HFI-vehicle (1 DMSO:3 HBC). • C) Phenotypic characterisation of the aged heart, kidney and blood vessels in the global IRAP knockout mice where aged WT and IRAP^−/− mouse hearts, kidneys and blood vessels were compared to tissue obtained from young WT and IRAP^−/− mice. • D) Reversal of the age-induced changes in the cardiovascular system following IRAP inhibitor treatment.” for “treatment.”\nTo measure collagen deposition, frozen sections of heart, kidney or aorta (all 5 μm thickness) were air dried for 10 minutes and were brought through 3 times xylene (2 minutes each), and 3 times absolute alcohol washes before being rinsed in tap H2O for 30 seconds. […] Images were taken under ×20 magnification, using bright field (Olympus, BX51) and circularized polarized light microscopy (DM IRB, Leica) while percentage of positive interstitial collagen staining per total field of view was quantified using ImageJ 1.46 software (Java, NIH), and averaged out from a total of eight views as the final percentage collagen content in a particular animal. […]"}}, "data": [{"smiles": "CCOC(=O)C1=C(NC(C)=O)Oc2cc(O)ccc2C1c1cccnc1", "note": "(stereo not drawn) [HFI-419]", "values": [{"measurement": "systolic blood pressure, SBP", "setting": "aged WT mice; chronic (4 week) HFI-419, FIG. 16a", "value": "no significant effect"}, {"measurement": "body weight", "setting": "aged WT mice; chronic (4 week) HFI-419, FIG. 16b", "value": "no significant effect"}, {"measurement": "ventricular weight to body weight ratio, VW:BW", "setting": "aged WT mice; chronic (4 week) HFI-419, FIG. 16c", "value": "no significant effect"}, {"measurement": "cardiomyocyte cross-sectional area (H&E)", "setting": "aged WT mice; chronic (4 week) HFI-419, FIG. 16e", "value": "no effect"}, {"measurement": "ventricular weight to tibial length ratio, VW:TL", "setting": "aged WT mice; chronic (4 week) HFI-419, FIG. 16d", "value": "no significant effect"}, {"measurement": "Ang II-induced increase in systolic blood pressure", "setting": "Ang II-infused WT mice", "value": "attenuates"}, {"measurement": "IRAP expression in kidneys", "setting": "[1]; aged WT mice, HFI-419 500 ng/kg/min s.c., 4 weeks, FIG. 22b", "value": "tended to be decreased"}, {"measurement": "αSMA-positive myofibroblast expression in kidneys", "setting": "[1]; aged WT mice, HFI-419 4 weeks vs vehicle, FIG. 24b", "value": "trend towards reduced"}, {"measurement": "age-induced collagen deposition in kidney (interstitial fibrosis, picrosirius red)", "setting": "[1]; ~20 month old WT mice, HFI-419 500 ng/kg/min s.c., 4 weeks, FIG. 23", "value": "completely reverse"}]}]}
